Experimental data from paper PMC9618103, “Exploratory toxicology studies of 2,3-substituted imidazo[1,2-a]pyridines with antiparasitic and anti-inflammatory properties” (Toxicology Research, 2022).

Legend:
[1] = tested on: Wistar rats; test: Subacute toxicity: serum alanine aminotransferase and alkaline phosphatase activity; format: in vivo; conditions: for Alanine Aminotransferase / Alkaline Phosphatase: serum, rats, p.o., 14 days at 10% of LD50 (CCl4, APAP: once daily, 3 days), mean ± SEM, n = 6
Method: (§1) For toxicity tests, acclimatized rats were randomly allocated to 12 groups (n = 12 for the control and n = 6 for the rest groups). […] Meanwhile, the aforementioned vehicles (dose volume 2 mL/kg b.w.) were administered to 3 groups. […] Upon completion of the 14-day treatments and before sample collection, the bladders of animals were emptied by gentle pressure on the lower part of the abdomen to induce urination. The animals were then housed in individual metabolic cages to collect urine for a period of 6 h and then the volume was recorded. Afterward, blood samples were obtained and the serum was separated by centrifugation at 1,620 × g for 10 min at room temperature.
The activities of serum alanine aminotransferase (ALT) and alkaline phosphatase (ALP) were measured with standard kits (RANDOX, Laboratories Ltd, UK).

[2] = tested on: Wistar rats; test: Hepatic and renal lipid peroxidation (lipid-soluble fluorescence); format: in vivo; conditions: for hepatic LPO, change in words / renal LPO, change in words: compared to the control group (CCl4 also versus PO); for Renal Lipoperoxidation: kidney; for Renal Lipoperoxidation / Hepatic Lipoperoxidation: rats, p.o., 14 days at 10% of LD50 (CCl4, APAP: once daily, 3 days), mean ± SEM, n = 6; for Hepatic Lipoperoxidation: liver
Method: as §1
Lipid peroxidation (LPO) was evaluated by the formation of lipid-soluble fluorescence, as previously described. Briefly, kidney and liver tissues were homogenized in 3 and 5 mL of phosphate buffer (0.2 M, pH = 7.4), respectively. A volume of 1 mL (kidney) or 0.8 mL (liver) of the homogenates was added to 7 mL of chloroform-methanol (2:1, v/v), and after 15 s of vortex mixing, the resulting mixture was cooled using an ice bath for 30 min to allow for phase separation. The fluorescence of the organic phase was measured using a Shimadzu fluorometer (Japan; λex = 370 nm; λem = 430 nm), whose sensitivity was adjusted to 140 fluorescence units by using 1 μg/mL of quinine sulfate in 50 mM H2SO4. The results were expressed as relative fluorescence units per milligram of protein.[33]
(§2) The protein concentration in homogenates was measured by the Bradford method.[29]

[3] = tested on: Wistar rats; test: Subacute toxicity: water and electrolyte balance (osmolality, sodium, potassium, urinary flow); format: in vivo; conditions: for Filtered Load of Potassium / Filtered Load of Sodium / Fractional Excretion of Potassium / Fractional Excretion of Sodium / Serum Osmolality / Serum Potassium / Serum Sodium / Urinary Flow Rate / Urinary Potassium Excretion / Urinary Sodium Excretion / U/S Osm ratio: rats, p.o., 14 days at 10% of LD50 (CCl4, APAP: once daily, 3 days), mean ± SEM, n = 6
Method: (§3) For toxicity tests, acclimatized rats were randomly allocated to 12 groups (n = 12 for the control and n = 6 for the rest groups). […] Meanwhile, the aforementioned vehicles (dose volume 2 mL/kg b.w.) were administered to 3 groups. […] The animals were then housed in individual metabolic cages to collect urine for a period of 6 h and then the volume was recorded. Afterward, blood samples were obtained and the serum was separated by centrifugation at 1,620 × g for 10 min at room temperature.
Osmolality of serum and urine were assessed (in triplicate) by using a vapor pressure osmometer (Wescor 5500, Logan, United States). U/S ratio as well as osmolar (COsm) and free water clearances were calculated via conventional equations:where UOsm and SOsm are the osmolality values (mOsm/Kg) in urine and serum, respectively, and φ is the UFR (mL/min).
(§4) The levels of sodium and potassium were measured in urine and serum using a flame photometer (Corning 400, Medfield, United States). Calculation was made of the clearance, fractional excretion, and filtered load of sodium (FLS), filtered load of potassium (FLP), and filtered load of glucose (FLG) using the conventional equations:where CX is the clearance rate of X (mL/min), CCr is the creatinine clearance rate (mL/min), UX and SX are the […] concentrations of X, respectively, φ is the UFR (mL/min), FEX is the fractional excretion (%) of X, and FLX is the filtered load of X in μEq/min (Na^+ or K^+) or mg/min (glucose).

[4] = tested on: Wistar rats; test: Hepatic and renal reactive oxygen species (DCF formation); format: in vivo; conditions: for hepatic ROS, change in words / renal ROS, change in words: compared to the control group (CCl4 also versus PO); for Renal ROS: kidney; for Renal ROS / Hepatic ROS: rats, p.o., 14 days at 10% of LD50 (CCl4, APAP: once daily, 3 days), mean ± SEM, n = 6; for Hepatic ROS: liver
Method: as §1
Reactive oxygen species (ROS) were measured by formation of 2′,7′-dichlorofluorescein (DCF). An aliquot of 10 μL (kidney) or 5 μL (liver) of the homogenates was added to 1,940 or 1,945 μL of TRIS:HEPES (18:1) and was incubated in the presence of 50 μL of 2′,7′-dichlorofluorescein diacetate for 1 h at 37 °C. In order to quench the reaction, the mixture was chilled using an ice bath. The fluorescence was measured using a Shimadzu fluorometer (Japan; λex = 488 nm; λem = 525 nm). The results were expressed as nM DCF formed per mg protein/h.[33]
as §2

[5] = tested on: Wistar rats; test: Subacute toxicity: serum and urine glucose, urinary protein excretion; format: in vivo; conditions: for Filtered Load of Glucose / Fractional Excretion of Glucose / Urinary Glucose Excretion / Urinary Protein Excretion / Serum Glucose: rats, p.o., 14 days at 10% of LD50 (CCl4, APAP: once daily, 3 days), mean ± SEM, n = 6
Method: as §3
Serum and urine glucose concentration were calculated using GOD-PAP kits (RANDOX, Laboratories Ltd, UK). Urinary protein was quantified using the Bradford method.[29]
(§5) Serum and urinary creatinine were determined by the Jaffe method. With this value, evaluation was made of the fractional excretion of sodium (FES), fractional excretion of potassium (FEP), and fractional excretion of glucose.[30]^,[31] The GFR was calculated from clearance of endogenous creatinine using the conventional equation:where GFR (CCr) is the creatinine clearance rate (mL/min); UCr and SCr are the creatinine concentrations (mg/dL) in urine and serum, respectively; and φ is the urinary flow rate (UFR) (mL/min). To avoid the error from the tubular secretion of creatinine found in males, only female animals were used.
as §4

[6] = tested on: Wistar rats; test: Subacute toxicity: glomerular filtration rate (creatinine clearance) and serum creatinine; format: in vivo; conditions: for Glomerular Filtration Rate / Serum Creatinine: rats, p.o., 14 days at 10% of LD50 (CCl4, APAP: once daily, 3 days), mean ± SEM, n = 6
Method: as §3, §5

[7] = tested on: renal secretory pathway of organic anions; test: Active tubular secretion of organic acids (PAH uptake in kidney cortex slices); format: in vivo, rats; conditions: kidney cortex slices, PAH 1 mM, 1 h, 25 °C; rats, p.o., 14 days at 10% of LD50 (CCl4, APAP: once daily, 3 days); mean ± SEM, n = 6
Method: as §1
p-Aminohippuric acid (PAH) was used as an indicator of the renal secretory pathway of organic anions. Kidneys were extracted and immediately submerged in Ringer solution (pH = 7.4 and mOsm = 290 ± 10 mOsm/kg) under constant bubbling with O2/CO2 (95/5%). The kidneys were decapsulated and slices of the kidney cortex were obtained, which were then incubated in Ringer solution containing PAH (1 mM) for 1 h at 25 °C under constant bubbling with O2/CO2 (95/5%). The levels of PAH were quantified with the Bratton-Marshall method and results were expressed as the PAH tissue/medium ratio (PAH t/m ratio).[31]^,[32]

[8] = tested on: NIH mice; test: Acute oral toxicity, median lethal dose (LD50); format: in vivo
Method: All treatments were administrated orally (p.o.) according to the scheme mentioned below.
Acute toxicity tests were performed in order to measure the median lethal dose (LD50). After acclimatization, mice were randomly allocated to ten groups (n = 4), including the control group (e.g. water, Tween 80, or PO) and the experimental groups, each with a single dose of one of the IMPYs at 4 levels of dose (0.5, 1.0, 2.0, and 4.0 g/kg b.w.).
Animals were food deprived overnight prior to administration of the chemical compounds or vehicles, and food was returned 4 h after dosing. Animals had access to water ad libitum throughout the study.[27]^,[28]

[9] = compared to the control (CCl4 also versus PO)
[10] = based on oral LD50, according to GHS [39]

Compound | Alanine Aminotransferase [1] [U/L] | Alkaline Phosphatase [1] [U/L] | Renal Lipoperoxidation [2] [URF/mg protein] | Hepatic Lipoperoxidation [2] [URF/mg protein] | Filtered Load of Potassium [3] [µEq/min] | Filtered Load of Sodium [3] [µEq/min] | Fractional Excretion of Potassium [3] [%] | Fractional Excretion of Sodium [3] [%] | Serum Osmolality [3] [mOsm/kg] | Serum Potassium [3] [mEq/L] | Serum Sodium [3] [mEq/L] | Urinary Flow Rate [3] [µL/min] | Urinary Potassium Excretion [3] [µEq/min] | Urinary Sodium Excretion [3] [µEq/min] | Renal ROS [4] [nM de DCF/mg protein/h] | Hepatic ROS [4] [nM de DCF/mg protein/h] | Filtered Load of Glucose [5] [mg/min] | Fractional Excretion of Glucose [5] [%] | Urinary Glucose Excretion [5] [ng/min] | Urinary Protein Excretion [5] [µg/min] | also measured
CC(=O)Nc1ccc(O)cc1 [APAP, acetaminophen, reference compound] | 41.47 ± 4.80 | 151.97 ± 11.19 | 0.46 ± 0.06 | 1.06 ± 0.06 | 3.99 ± 0.80 | 147.38 ± 31.27 | 12.50 ± 3.12 | 0.27 ± 0.09 | 295.68 ± 1.57 | 3.78 ± 0.22 | 138.58 ± 2.37 | 6.19 ± 1.15 | 0.47 ± 0.14 | 0.46 ± 0.21 | 421.62 ± 56.57 | 1740.28 ± 231.55 | 1.35 ± 0.27 | 0.01 ± 1.9E-3 | 87.10 ± 19.92 | 0.94 ± 0.24 | hepatic LPO, change in words [2]: increased; renal LPO, change in words [2]: increased; serum potassium, change in words ([3]; compared to the control group, significant by PLS VIP and ANOVA): decreased; hepatic ROS, change in words [4]: increased; renal ROS, change in words [4]: increased
ClC(Cl)(Cl)Cl [CCl4, carbon tetrachloride, reference compound] | 127.80 ± 4.08 | 328.19 ± 61.36 | 0.61 ± 0.07 | 1.06 ± 0.11 | 17.22 ± 5.29 | 592.11 ± 199.71 | 6.86 ± 2.06 | 0.21 ± 0.06 | 305.77 ± 3.41 | 4.27 ± 0.25 | 139.08 ± 1.63 | 6.59 ± 1.39 | 0.73 ± 0.10 | 0.72 ± 0.13 | 333.27 ± 74.29 | 1434.82 ± 121.35 | 4.64 ± 1.71 | 0.02 ± 0.01 | 265.11 ± 89.54 | 12.15 ± 4.49 | serum ALP, change in words [1, 9]: increased; serum ALT, change in words [1, 9]: increased; Glomerular Filtration Rate [6]: 4.30 ± 1.47 mL/min; Serum Creatinine [6]: 0.45 ± 0.13 mg/dL; hepatic LPO, change in words [2]: increased; renal LPO, change in words [2]: increased; U/S Osm ratio [3]: 3.27 ± 0.37; hepatic ROS, change in words [4]: increased; renal ROS, change in words [4]: increased; PAH t/m ratio [7]: 2.08 ± 0.11; Serum Glucose [5]: 103.17 ± 4.35 mg/dL
CCOC(=O)c1cn2ccccc2n1 [Compound 1a, ethyl imidazo[1,2-a]pyridine-2-carboxylate] | 22.22 ± 1.69 | 93.14 ± 11.91 | 0.28 ± 0.03 | 0.75 ± 0.04 | 2.69 ± 1.19 | 64.29 ± 26.43 | 22.26 ± 6.39 | 0.74 ± 0.22 | 293.75 ± 1.88 | 6.57 ± 0.32 | 162.39 ± 5.03 | 4.17 ± 1.25 | 0.34 ± 0.06 | 0.29 ± 0.08 | 161.18 ± 27.84 | 317.94 ± 25.65 | 0.39 ± 0.17 | 0.04 ± 0.01 | 96.54 ± 29.03 | 0.56 ± 0.10 | GFR, change in words ([6]; in comparison to the control group): lower; Glomerular Filtration Rate [6]: 0.34 ± 0.14 mL/min; Serum Creatinine [6]: 0.80 ± 0.14 mg/dL; U/S Osm ratio [3]: 3.02 ± 0.25; PAH t/m ratio [7]: 2.51 ± 0.13; Category (GHS acute oral toxicity hazard category) [8, 10]: 5; Hazard statement (GHS) [8, 10]: May be harmful if swallowed; Oral LD50 ([8]; female NIH mice, single oral dose, 14 days observation): 3.175 g/kg b.w.; FLG (filtered load of glucose), change in words ([5]; compared to control values): reduced; Serum Glucose [5]: 112.39 ± 4.92 mg/dL
